Measured values taken from US6693105B1, “Hydroxyl-containing compounds” (Cell Therapeutics, Inc., priority 1992, dated 2004).

How the values were obtained:
[1] = tested on: PBMC (peripheral blood mononuclear cells); assay: two-way mixed lymphocyte reaction (MLR), proliferative response of PBMC to allogeneic stimulation; assay type: cell-based, human; conditions: for IC50: Homo sapiens, PBMC, mixed lymphocyte reaction; for immune modulating activity compared with PTX: two-way MLR, FIG. 1
Text: Various in vitro assays can be used to measure effects of the inventive compounds to module immune activity and have antitumor activity using a variety of cellular types. For example, a mixed lymphocyte reaction (MLR) provides a valuable screening tool to determine biological activity of each inventive compound. In the MLR, PBMCs (peripheral blood mononuclear cells) are obtained by drawing whole blood from healthy volunteers in a heparinized container and diluted with an equal volume of hanks balanced salt solution (HBSS). This mixture is layered on a sucrose density gradient, such as a Ficoll-Hypaque® gradient (specific gravity 1.08), and centrifuged at 1000×g for 25 minutes at room temperature or cooler. PBMC are obtained from a band at a plasma-Ficoll interface, separated and washed at least twice in a saline solution, such as HBSS. Contaminating red cells are lysed, such as by ACK lysis for 10 min at 37° C., and the PBMCs are washed twice in HBSS. The pellet of purified PBMCs is resuspended in complete medium, such as RPMI 1640 plus 20% human inactivated serum. Proliferative response of PBMC to allogeneic stimulation is determined in a two-way MLR performed in a 96-well microtiter plate. Briefly, approximately 10^5 test purified PBMC cells in […] complete medium are co-cultured with approximately 10^5 autologous (control culture) or allogeneic (stimulated culture) PBMC cells, wherein the allogeneic cells are from HLA disparate individuals. Varying doses of compounds (drug) are added at the time of addition of cells to the microtiter plate. The cultures are incubated for 6 days at 37° C. in a 5% CO2 atmosphere. At the conclusion of the incubation tritiated thymidine is added (for example, 1 µCi/well of 40 to 60 Ci/mmole) and proliferation determined by liquid scintillation counting.
This example illustrates the effect of compounds nos. 1551 and 1559 as an immune modulator. […] 1551 and 1559 (see above for chemical names and structures).

human stromal cells = assay: PDGF-induced proliferation of human stromal cells; assay type: cell-based; conditions: 50 ng/ml PDGF-BB, drug added one hour before, tritiated thymidine, FIG. 2
Procedure: (§1) Another assay for measuring activity of the inventive compounds involves determining PDGF, FGF or VEGF proliferative response using either mouse NIH-3T3 (Balb) cells or human-derived stromal cells. Human stromal cells are plated (e g., about 2000 cells per well) in defined media (e.g., 69% McCoy's, 12.5% fetal calf serum, 12.5% horse serum, 1% antibiotics, 1% glutamine, 1% vitamin supplement, 0.8% essential amino acids, 1% sodium pyruvate, 1% sodium bicarbonate, 0.4% non-essential amino acids and 0.36% hydrocortisone). Two to three days later, the stromal cells are starved in serum-free media. Twenty four hours later, the cells are treated with a stimulating agent, such as PDGF-AA, PDGF-BB or basic FGF (fibroblast growth factor) with or without IL-1 or TNF, and tritiated thymidine. Cell proliferation is determined by liquid scintillation counting.
This example illustrates a comparison of compounds nos. 1551 and 1559 on PDGF-induced (platelet derived growth factor) proliferation of human stromal cells. Human stromal cells were starved in serum-free media for 24 hours and then stimulated with 50 ng/ml of PDGF-BB. The drugs were added at various indicated concentrations one hour prior to PDGF stimulation. Tritiated thymidine was added at the time of PDGF stimulation. The cells were harvested and counted by liquid scintillation 24 hours after stimulation with PDGF. […]

murine thymocytes = assay: murine thymocyte proliferation co-stimulated by ConA and IL-2; assay type: cell-based, Balb/C mice; conditions: Mus musculus, ConA 0.25 mg/ml and IL-2 15 U/ml, drug added two hours before, 4 days
Text: This example illustrates dose response curves used to generate 50% inhibition concentration (IC50) of inventive compounds nos. 1551 and 1564 for murine thymocyte proliferation, co-stimulated by Concanavalin A (ConA) and interleukin-2 alpha (IL-2). ConA, used to activate CD3, along with IL-2 co-stimulation, induces T-cell proliferation and differentiation. Thymuses, obtained from normal, female Balb/C mice, were dissociated and plated into 96-well plates at a density of 2×10^5 cells/well. ConA (0.25 mg/ml) and IL-2 (15 U/ml) were added to the wells. The cells were incubated for 4 days at 37° C. On day 4, the cells were pulsed with tritiated thymidine and incubated for an additional 4 hours. The amount of tritiated thymidine dye incorporated by the harvested cells was determined in a liquid scintillation counter. Drug doses (shown in FIGS. 7A and 7B) were added two hours prior to ConA and IL-2 activation. Background counts were less than 200 cpm. […] 1551 and 1564 are 28 and 49 μM.

VCAM = assay: TNF-induced cell surface expression of VCAM in HUVEC, flow cytometry; assay type: cell-based, human; conditions: for % of cells in gate (VCAM expression): 20 ng/ml TNF for 20 hours, 1559 at 0.25 mM one hour prior to TNF, TNF alone 34.5%, non-induced 0.4%
Procedure: This example illustrates the effect of compound no. 1559 on inhibiting cell surface expression of VCAM in human umbilical vein endothelial cells (HUVEC). The HUVEC cells were stimulated with 20 ng/ml TNF- for 20 hours and then stained for immunofluorescence using a monoclonal antibody recognizing VCAM, followed by a goat anti-mouse antibody conjugated to phycoerythrin. The cells were analyzed for antibody binding using flow cytometry. […] The top left histogram is non-TNF induced expression of VCAM (% of cells in gate A is 0.4%). […] 1559 (0.25 mM), one hour prior to TNF addition (% of cells in gate C is 24%).
This example illustrates the effect of compound no. 1559 on inhibiting cell surface expression of VCAM in HUVEC cells. The cells were stimulated with TNF- (20 ng/ml) for 20 hours and then stained for immunofluorescence using a monoclonal antibody recognizing VCAM, followed by a goat anti-mouse antibody conjugated to phycoerythrin. The cells were analyzed for antibody binding using flow cytometry. […] The mean fluorescence levels were decreased by compound no. 1559 treatment (1.7 fold decrease) when compared with control levels (TNF treatment, no drug).

Balb/3T3 cells = assay: PDGF-BB-induced proliferation of Balb/3T3 cells; assay type: cell-based, mouse; conditions: tritiated thymidine, FIGS. 8A and 9A
Procedure: as §1
Balb/3T3 cells respond vigorously to PDGF stimulation, and are useful in vitro models for further study of PDGF-induced proliferation. Disregulated PDGF-proliferative response has been linked to a variety of diseases, including, e.g., restenosis, atherosclerosis, fibrosis, and tumor cell angiogenesis. Cells were plated in low serum-containing medium for 24 hours prior to stimulation with various concentrations (as reported in FIGS. 8A and 9A) of inventive compounds nos.2556 and 3504 (FIGS. 8A and 9A, respectively). […]

IL-12 signaling = assay: IL-12 dependent in vitro T-helper cell (Th1) differentiation assay; assay type: cell-based; conditions: anti-CD3 stimulated splenic T cells, 5 U/ml IL-12, compound present during T cell activation
Procedure: This example illustrates the assay used to determine the effect of compounds of this invention in suppressing Th1 differentiation in vitro by blocking IL-12 signaling. Compounds are tested in an IL-12 dependent in vitro T-helper cell differentiation assay as described in LeGross et al., J. Exp. Med., 172:921-929 (1990). Recombinant IL-12 is used to induce Th1 differentiation. Splenic T cells are purified utilizing the antibodies RA3-3A1/6.1 (anti-B220), J11d and MAR8.5 (anti-rat kappa chain) to deplete the B cells via complement mediated toxicity following the procedure set forth in Klaus et al., J. Immunol., 149:1867-1875 (1992). Splenic T cells are stimulated at 5×10^5/ml with insoluble anti-CD3 alone (145-2C11, Pharmingen, San Diego, Calif.), or anti-CD3 and 5 U/ml IL-12, with and without each inventive compound. After seven days, equal numbers of viable cells are restimulated for 24 hours with anti-CD3 without the inventive compounds, and the supernatants are collected and assayed for IFN-γ production. IFN-γ and IL-4 levels are measured by Intertest kits from Genzyme specific for IFN-γ and IL-4.
Th1 differentiation is induced by culturing anti-CD3 stimulated T cells in the presence of exogenous IL-12. […] Neither the viability or recovery of T cells after one week of culture in the presence of the compound.

[2] = tested on: LD-2 cells, a human malignant melanoma cell line; assay: cytotoxicity on LD-2 cells (BCECF viability stain); assay type: cell-based; conditions: various concentrations, FIG. 3
Procedure: (§2) This example provide data from an experiment measuring compound no. 1559 cytotoxicity on LD-2 cells, a human malignant melanoma cell line. The cells were treated with various concentrations of compound no. 1559 and later stained for cell viability with a fluorescence stain (BCECF) and analyzed using a Milipore fluorescence plate reader.

NIH-3T3 cells = assay: cytotoxicity on NIH-3T3 cells (BCECF viability stain); assay type: cell-based, mouse; conditions: various concentrations, FIG. 4
Procedure: as §2, with “provides” for “provide”, “NIH-3T3 cells and their Ras transformed counterpart, NIH-3T3 Ras cells.” for “LD-2 cells, a human malignant melanoma cell line.”

NIH-3T3 Ras cells = assay: cytotoxicity on NIH-3T3 Ras cells (BCECF viability stain); assay type: cell-based, mouse; conditions: various concentrations, FIG. 4
Procedure: as §2, with “provides” for “provide”, “NIH-3T3 cells and their Ras transformed counterpart, NIH-3T3 Ras cells.” for “LD-2 cells, a human malignant melanoma cell line.”

Q: Which IC50 [1] does the source give for CC(O)CCCCCCCn1c(=O)c2c(ncn2C)n(C)c1=O (centres unmarked) [Compound 1551, 1-(8-Hydroxynonyl)-3,7-dimethylxanthine] here?
A: 120 µM

Q: And the “immune modulating activity compared with PTX” value [1]?
A: more effective and more potent than PTX

Q: What about the “inhibition of PDGF-induced stimulation (proliferation)” value (human stromal cells) of the same compound?
A: inhibited PDGF-induced stimulation

Q: And the IC50 (murine thymocytes)?
A: 28 µM

Q: For Cn1cnc2c1c(=O)n(CCCCCCC(O)CO)c(=O)n2C (centres unmarked) [Compound 1538, 1-(7,8-Dihydroxyoctyl)-3,7-dimethylxanthine], which IC50 [1] is on record?
A: > 500 µM

Q: How did the IC50 [1] turn out when Cn1cnc2c1c(=O)n(CCCCCCO)c(=O)n2C [Compound 1556, 1-(6-Hydroxyhexyl)-3,7-dimethylxanthine] was run?
A: > 500 µM

Q: How did the “% of cells in gate (VCAM expression)” value (VCAM) turn out when CC(=O)CCCCn1c(=O)c2c(ncn2C)n(C)c1=O [PTX, 1-(5-oxohexyl)-3,7-dimethylxanthine, reference compound] was run?
A: 36.8%

Q: With Cn1cnc2c1c(=O)n(CC(O)CO)c(=O)n2C (centres unmarked) [Compound 1540, 1-(2,3-Dihydroxypropyl)-3,7-dimethylxanthine] as the compound, how does the IC50 [1] read?
A: > 500 µM

Q: How did the “inhibition of PDGF-induced proliferation” value (Balb/3T3 cells) turn out when Cn1cnc2c1c(=O)n(CCCCCCCCCCCC(O)CO)c(=O)n2C (centres unmarked) [Compound 2556] was run?
A: inhibited PDGF-induced proliferation

Q: For Cn1cnc2c1c(=O)n(CCCCCCCC(O)CO)c(=O)n2C (centres unmarked) [Compound 1561, 1-(8,9-Dihydroxynonyl)-3,7-dimethylxanthine], which IC50 [1] is on record?
A: 185 µM

Q: CC(O)CCCn1c(=O)c2c(ncn2C)n(C)c1=O (centres unmarked) [Compound 1542, 1-(4-Hydroxypentyl)-3,7-dimethylxanthine] was tested. Which IC50 [1] did it give?
A: > 500 µM

Q: CC(O)CCCCCCn1c(=O)c2c(ncn2C)n(C)c1=O (centres unmarked) [Compound 1536, 1-(7-Hydroxyoctyl)-3,7-dimethylxanthine] was tested. Which IC50 [1] did it give?
A: 250 µM

Q: What about the “inhibition of Th1 differentiation enhanced by exogenous IL-12” value (IL-12 signaling) of the same compound?
A: inhibited Th1 differentiation

Q: How did the IC50 [1] turn out when Cn1cnc2c1c(=O)n(CCCCCCCO)c(=O)n2C [Compound 1545, 1-(7-Hydroxyheptyl)-3,7-dimethylxanthine] was run?
A: 300 µM

Q: Which IC50 [1] does the source give for Cn1cnc2c1c(=O)n(CCCCCCCCC(O)CO)c(=O)n2C (centres unmarked) [Compound 1564, 1-(9,10-Dihydroxydecyl)-3,7-dimethylxanthine] here?
A: 210 µM

Q: What about the IC50 (murine thymocytes) of the same compound?
A: 49 µM

Q: For CC(O)CCCCCCCCCCCCn1c(=O)c2c(ncn2C)n(C)c1=O (centres unmarked) [Compound 3504, 1-(13-Hydroxytetradecyl)-3,7-dimethylxanthine], which “inhibition of PDGF-induced proliferation” value (Balb/3T3 cells) is on record?
A: inhibited PDGF-induced proliferation

Q: Which IC50 [1] does the source give for Cn1cnc2c1c(=O)n(CCCCCCCCCCO)c(=O)n2C [Compound 1559, 1-(10-Hydroxydecyl)-3,7-dimethylxanthine] here?
A: 150 µM

Q: And the “immune modulating activity compared with PTX” value [1]?
A: more effective and more potent than PTX

Q: What about the “inhibition of PDGF-induced stimulation (proliferation)” value (human stromal cells) of the same compound?
A: inhibited PDGF-induced stimulation

Q: What about the cytotoxicity [2] of the same compound?
A: cytotoxic at higher concentrations

Q: What about the cytotoxicity (NIH-3T3 cells) of the same compound?
A: cytotoxic at higher concentrations

Q: What about the cytotoxicity (NIH-3T3 Ras cells) of the same compound?
A: cytotoxic at higher concentrations

Q: And the “% of cells in gate (VCAM expression)” value (VCAM)?
A: 24%

Q: What about the “decrease of mean fluorescence levels (VCAM) compared with control (TNF treatment, no drug)” value (VCAM; TNF 20 ng/ml for 20 hours, FIG. 6) of the same compound?
A: 1.7 fold decrease

Q: For Cn1cnc2c1c(=O)n(CCCCCCCCO)c(=O)n2C [Compound 1546, 1-(8-Hydroxyoctyl)-3,7-dimethylxanthine], which IC50 [1] is on record?
A: 320 µM
